Among the data in ChEMBL document CHEMBL1133776, “A rapid computational method for lead evolution: description and application to alpha(1)-adrenergic antagonists” (J Med Chem, 2000) are Ki values, retold here.

In the assay the target is T1, Adrenergic receptor alpha-1 (Rattus norvegicus, UniProt P15823+P23944+P43140).
T1 sequence (P15823 whole entry): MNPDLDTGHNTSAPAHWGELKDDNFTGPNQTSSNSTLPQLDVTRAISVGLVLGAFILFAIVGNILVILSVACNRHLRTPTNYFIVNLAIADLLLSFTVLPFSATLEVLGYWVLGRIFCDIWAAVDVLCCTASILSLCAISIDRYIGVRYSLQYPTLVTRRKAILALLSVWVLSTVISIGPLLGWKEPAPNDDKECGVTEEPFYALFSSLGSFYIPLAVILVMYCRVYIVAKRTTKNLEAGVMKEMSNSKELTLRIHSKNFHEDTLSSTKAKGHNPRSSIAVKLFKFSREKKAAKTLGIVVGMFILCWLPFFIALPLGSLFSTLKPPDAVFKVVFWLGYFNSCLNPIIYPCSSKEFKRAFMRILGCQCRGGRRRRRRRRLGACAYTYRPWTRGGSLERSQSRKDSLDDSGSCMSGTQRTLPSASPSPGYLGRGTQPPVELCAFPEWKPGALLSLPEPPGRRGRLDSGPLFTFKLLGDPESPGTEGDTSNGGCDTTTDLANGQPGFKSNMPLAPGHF
T1 sequence (P23944 whole entry): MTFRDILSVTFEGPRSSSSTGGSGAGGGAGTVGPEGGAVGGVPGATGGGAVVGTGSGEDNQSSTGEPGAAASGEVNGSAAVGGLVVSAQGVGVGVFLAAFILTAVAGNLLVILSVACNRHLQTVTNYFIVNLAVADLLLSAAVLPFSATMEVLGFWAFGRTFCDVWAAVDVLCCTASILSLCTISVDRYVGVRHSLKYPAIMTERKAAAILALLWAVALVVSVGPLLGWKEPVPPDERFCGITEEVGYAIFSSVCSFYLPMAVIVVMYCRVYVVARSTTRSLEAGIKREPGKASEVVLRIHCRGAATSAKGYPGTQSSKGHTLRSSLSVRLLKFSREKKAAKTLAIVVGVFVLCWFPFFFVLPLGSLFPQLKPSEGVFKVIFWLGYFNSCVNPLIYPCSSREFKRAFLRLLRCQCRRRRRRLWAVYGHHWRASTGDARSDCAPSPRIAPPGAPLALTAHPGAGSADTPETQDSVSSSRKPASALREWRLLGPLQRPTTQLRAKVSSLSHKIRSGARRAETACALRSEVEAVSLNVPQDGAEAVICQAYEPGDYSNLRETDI
T1 sequence (P43140 whole entry): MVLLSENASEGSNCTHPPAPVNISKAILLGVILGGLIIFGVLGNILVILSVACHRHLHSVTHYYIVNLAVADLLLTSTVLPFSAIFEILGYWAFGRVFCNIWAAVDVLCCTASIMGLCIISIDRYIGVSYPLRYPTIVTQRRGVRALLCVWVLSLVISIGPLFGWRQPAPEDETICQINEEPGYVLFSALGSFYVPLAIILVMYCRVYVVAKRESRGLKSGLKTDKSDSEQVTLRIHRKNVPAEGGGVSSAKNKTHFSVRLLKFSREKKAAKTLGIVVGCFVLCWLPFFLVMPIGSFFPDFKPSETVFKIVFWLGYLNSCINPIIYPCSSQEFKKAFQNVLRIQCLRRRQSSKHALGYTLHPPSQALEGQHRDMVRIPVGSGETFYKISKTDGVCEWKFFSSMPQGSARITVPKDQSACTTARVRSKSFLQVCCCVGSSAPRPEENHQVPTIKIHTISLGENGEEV
Description: Evaluated for binding affinity against alpha-1 adrenergic receptor. Type of assay: protein assay.

The term Ki denotes a measure of affinity in units of concentration, obtained from inhibition or displacement. On to `COc1cccc(OC)c1OCCNCC1COc2ccccc2O1` (stereo unspecified), for which the Ki was 0.54 nM.
